Article PMC5290737, “Surface mediated cooperative interactions of drugs enhance mechanical forces for antibiotic action” (Scientific Reports, 2017)
Read-outs that look alike come from different tables or passages of the source.

Experiments:
VSR (Ac-VSR) in solution = settings: VSR in solution; ref. 1 (Van, Rist), ref. 7 (CE), ref. 2 (Ori), supplementary references; read-out: Ksurf Solution; cited from earlier work
[1] = system: vancomycin resistant E. faecalis (VRE); settings: absence of polysorbate-80; ref. 2 (Van), ref. 5 (Rist, CE), ref. 9 (Ori), supplementary references; cited from earlier work
[2] = ligand-ligand dissociation constant in solution; ref. 2 (Van, CE, Ori), ref. 5 (Rist), supplementary references; read-out: K1 Solution (complex aggregation constant); cited from earlier work
[3] = biological target: vancomycin-susceptible receptor (VSR); settings: ref. 4 (Rist), ref. 3 (CE), supplementary references, read-out: Ksurf SPR; cited from earlier work
[4] = biological target: vancomycin-resistant receptor (VRR); settings: ref. 3 (Van), ref. 5 (Rist), ref. 4 (CE), supplementary references, read-out: Ksurf SPR; cited from earlier work
[5] = system: vancomycin-resistant receptor (VRR); assay: Cantilever surface stress assay, antibiotic binding to surface-bound VRR
Text: (§1) To probe different pathways of signal-transduction central to the efficacy of recognition mechanisms and therapeutic agents, we used cantilever force-based technology. Because of its nanometre strain sensitivity, this technology can directly measure the smallest changes in mechanical strain caused by specific antibiotic binding. The principles of force transduction and measurements are well established[18][19][20] and many studies focused on cantilever sensors have been published. Unlike conventional methods such as 1H–NMR spectroscopy, enzyme-linked immunosorbent assays (ELISA)[29] or surface plasmon resonance (SPR)[30] which measure optical signatures of chemical binding, cantilever technology has the capacity to resolve forces at the level of individual hydrogen bonds, making it uniquely suited to provide important insight into force transduction mechanisms, such as cell wall strain in response to antibiotic binding. Moreover, in contrast to direct current or low-frequency signals, which cannot probe beyond electrical double layers formed by screening salts, mechanical signaling is sensitive to ligands even when they are located at distance of ~1 nm or more from the sensor surface (Fig. 1d). Measurements were performed using cantilevers functionalized with self-assembled monolayers (SAM) of VSR, VRR or reference polyethylene glycol (PEG) (see methods & materials, Supplementary Information). The specificity of mechanical signaling was achieved by performing measurements in differential mode, where the bending response of the reference PEG-coated cantilevers, (known to reduce nonspecific drug adsorption[8][14][34]) was subtracted from VSR- and VRR-coated cantilever signals (see cantilever measurement procedure, method section).
(§2) Thus far, we have discussed the impact of near-membrane layer on the association kinetics, mechanical force transduction, specificity of molecular recognition and microbial susceptibility. To gain mechanistic insight (Fig. 7a,b), we averaged measurements for each drug-target interaction over four separate chips and the results are summarized in Fig. 7c,d. […] The mechanical signaling response follows an s-shaped curve undergoing its steepest rise at N ~1/Ksurf before reaching a plateau when the binding sites are fully occupied (Fig. 7c,d). To calculate Ksurf, we used equation (2)[14], based on the conventional Hill adsorption model.
(§3) Here, Ksurf is raised to the power n to ensure that it maintains the dimension of concentration as n varies. Setting n = 1 yields the Langmuir isotherm where the reactions occur independently, while n > 1 corresponds to positive co-operative polyvalent interactions and n < 1 is a measure of negative co-operativity. In Fig. 7c,d, we find that the mechanical response at VSR levels off at 50 μM concentration for all antibiotics. In contrast, for the drug-resistant VRR a concentration of more than 1000 μM of Van, Rist or CE was required to reach indistinguishable maximum signals. The outcome of the fit using three parameters (n, Ksurf and σmax) is summarized in Supplementary Fig. 2. The calculated Ksurf for Ori binding to VSR is 40 ± 10 nM, which is 25 times stronger than for Van where Ksurf is 1.0 ± 0.3 μM. The Ksurf of Ori against VRR is 70 ± 10 nM, an astonishing 11,000 times stronger than for Van where Ksurf is 800 ± 300 μM. As a further measurement control and to confirm the accuracy of surface binding affinity, we used a commercially available SPR method (Fig. 7e,f and Supplementary SPR sensor chip functionalization procedure), where the detection of ligands is at a single planar metal surface.
(§4) The modified cantilever chip was mounted in a sealed liquid cell. The alignment of each light source onto the free end of each cantilever was confirmed by heating liquid chamber to 1 °C rise. […]

[6] = system: vancomycin susceptible E. faecalis (VSE); settings: absence of polysorbate-80; ref. 9 (Van, CE, Ori), ref. 10 (Rist), supplementary references; cited from earlier work
VRR in solution = settings: ref. 1 (Van), ref. 6 (Rist), ref. 8 (CE), ref. 2 (Ori), supplementary references, read-out: Ksurf Solution; cited from earlier work
[7] = biological target: vancomycin-susceptible receptor (VSR); assay: Cantilever surface stress assay, antibiotic binding to surface-bound VSR
Text: as §1, §2, §3, §4

[8] = system: methicillin-susceptible Staphylococcus aureus (MSSA) ATCC 29213; assay: MIC by broth microdilution (CLSI M07-A8), with PS80; assay type: cell-based; settings: MSSA ATCC 29213, with PS80
Method: Determination of MIC values to methicillin-susceptible Staphylococcus aureus (MSSA).
Minimum Inhibitory Concentration (MIC) is defined as the lowest concentration of antibacterial agent required to inhibit growth of a microorganism after incubation. The antibiotics vancomycin (Van) and ristomycin (Rist) were obtained from Sigma-Aldrich while chloroeremomycin (CE) and oritavancin (Ori) were obtained from the Medicine Company Inc., U.S.A. To prepare antibiotic stock solutions for MICs assay, 5 mg/ml of each drug was dissolved in water containing an appropriate volume of 0.002% polysorbate-80 or PS80 obtained from Sigma-Aldrich which corresponds to 20 µM to eliminate nonspecific interactions of drugs to surfaces particularly for Ori which is known to bind to glass and plastics13. Microbiological broth with PS80 maintained at 20 µM was used in the drug dilution steps until the required final (assay) concentration. Diluted concentrations of each drug were assayed by adding an inoculum of methicillin-susceptible Staphylococcus aureus (MSSA) ATCC 29213 cells and the MIC determined by broth microdilution according to Clinical Laboratory Standards Institute (CLSI) methodology M07-A8 (CLSI 2009a)14. The results as shown in Supplementary Table S2 for each antibiotic against clinical isolate of MSSA ATCC 29213 strains conducted in the presence of […]
PS80 are within the quality control ranges defined in the guideline15. […]

## ristomycin
VSR (Ac-VSR) in solution
  Kd: 1.7 µM
[1]
  MIC VRE: 512 µg/mL
[2]
  Kd: 3000 µM
[3]
  Kd: 0.2 µM
[4]
  Kd: 6.7 µM
[5]; 10 μM antibiotic against VRR
  compressive surface stress: ~ 2 mNm^−1
[5]; VRR
  concentration required to reach indistinguishable maximum signals: more than 1000 μM
[5]; VRR on cantilever, fit of equation (2), pH 7.4 sodium phosphate buffer, read-out: Ksurf Cantilever (surface equilibrium dissociation constant)
  Kd: 32 ± 17 µM
[5]; VRR, 4 chips, one-way ANOVA table S4
  maximum stress data, Mean: 7.5
[6]
  MIC VSE: 12.5 µg/mL
VRR in solution
  Kd: 3850 µM
[7]; VSR on cantilever, fit of equation (2), pH 7.4 sodium phosphate buffer, read-out: Ksurf Cantilever (surface equilibrium dissociation constant)
  Kd: 0.9 ± 0.5 µM
[7]; VSR, 4 chips, one-way ANOVA table S5
  maximum stress data, Mean: 34.5
[7]; independent samples t-test, 4 chips, table S6
  Mean difference of stress, VSR versus VRR: 27.0
[8]
  MIC: 8.0 µg/mL
[8]; converted from mg/l
  MIC: 3.69 µM
